# Results: article PMC9013686, “Inter-individual variation in chlorpyrifos toxicokinetics characterized by physiologically based kinetic (PBK) and Monte Carlo simulation comparing human liver microsome and Supersome™ cytochromes P450 (CYP)-specific kinetic data as model input” (Archives of Toxicology, 2022)
# Read-outs that look alike come from different tables or passages of the source.
# Experiments:
# pooled HLMs (CYPs) [1] = details: cited from earlier work
# CYP2C19 [2] = target: T1, CYP2C19 (Homo sapiens, UniProt P33261); details: bioactivation of CPF, ref Foxenberg et al. [2007]; cited from earlier work
# CYP2C19 [3] = target: T1, CYP2C19; test: Supersome CYP2C19 kinetic incubations; format: in vitro ADME; design: purchased Corning (Amsterdam, The Netherlands); host or cells: baculovirus-transfected insect cells; details: for Scaled Vmax(app): CYP2C19 scaled to whole liver by Eq. 3; for Vmax (app) / Km: Supersome CYP2C19; for Km: human, recombinant CYP2C19 Supersomes, pH 7.4, Km(app)
# Description: (§1) The final incubations were carried out in 50 mM Tris–HCl (pH 7.4) containing 5 mM MgCl2, 1 mM EDTA (as an A-esterase PON1 inhibitor) (Bizoń and Milnerowicz [2018]), 50 µM iso-OMPA (as a B-esterases inhibitor) (Lane et al. [2006]), Supersome™ isoform (at final concentration of 0.005 nmol CYP/ml for 1A2, 0.001 nmol CYP/ml for 2B6, 0.01 nmol CYP/ml for 2C19, and 0.01 nmol CYP/ml for 3A4) and CPF at different final concentrations (0.05, 0.1, 0.25, 0.5, 1, 5 and 10 µM for 1A2, 0.05, 0.1, 0.25, 0.5, 1, 5 10 and 25 µM for 2B6, 1, 2.5, 5, 10, 25 and 50 µM for 2C19, and 0.5, 1, 2.5, 5, 10, 25 and 50 µM for 3A4), which were added from 100 times concentrated stock solutions in ACN. After 1 min preincubation in a 37 °C water bath, 5 µl NADPH (final concentration 1 mM) was added to the incubation system. Control incubations were performed by replacing NADPH with the same amount of Tris–HCl (pH 7.4). The total volume of the incubation mixtures was 200 µl. The incubations lasted for 2 min at 37 °C and were terminated by addition of 50 µl ice cold ACN and subsquently put on ice. After that, samples were centrifuged at 16,000 g (4 ℃) for 5 min and supernatants of samples were separated into two equal portions for Ultra-Performance Liquid Chromatography-Photodiode Array (UPLC-PDA) and Liquid Chromatography Mass Spectrometry (LC–MS/MS) analysis, respectively.
# (§2) To normalize for differences in intrinsic CYP activity between Supersome™ and pooled HLMs and enable scaling of the activities to the in vivo situation, CYP-specific ISEF values need to be established. […] The incubation method was similar as used for the CPF kinetic incubation assay described above, except that certain incubation conditions were replaced by the conditions listed in Table 1. The samples obtained were analyzed by UPLC-PDA for acetaminophen, 4-hydroxymephenytoin, and 6β-hydroxytestosterone formation catalyzed by 1A2, 2C19 and 3A4, or LC–MS/MS for (±)-hydroxybupropion formation catalyzed by 2B6.
# (§3) As mentioned before, the in vitro apparent kinetic parameters (Vmax and Km) for pathway 1 and pathway 2 in the HLM-based approach, and pathway 3 in both approaches were all obtained directly from reported studies using pooled HLMs (Buratti et al. [2003]; Sams et al. [2004]; Zhao et al. [2019]). Therefore, no extra calculations were required to define these parameters. The kinetic parameters for the ISEF calculation, pathway 1 and 2 in the Supersome™-based approach, and pathway 4 in both approaches (25 individuals) were all obtained by fitting the experimental data to the Michaelis–Menten model using GraphPad (GraphPad Prism 5.0 software, San Diego, CA, USA). It should be noted that the kinetic parameters for pathway 4 used in the two approaches were calculated as mean of the kinetic parameters (Vmax and Km) obtained using 25 individual HP samples (with correction for total protein concentration of each plasma sample).
# (§4) The in vivo Kmi values were assumed to be equal to the apparent Kmi(app) values (µM) obtained in the in vitro incubations, while the in vivo Vmaxi for each CYP isoform was derived from their corresponding apparent CYP isoform Vmaxi(app) (pmol/min/pmolCYP) using Eq. 3:3 Vmaxi=Vmaxiapp×CYPiabundance×ISEF×60×MPL×1000×VL/1,000,000,
# CYP1A2 = target: T2, CYP1A2 (Homo sapiens, UniProt P05177); details: bioactivation of CPF, ref Foxenberg et al. [2007]; cited from earlier work
# T2 sequence (P05177 2-516 limits assumed): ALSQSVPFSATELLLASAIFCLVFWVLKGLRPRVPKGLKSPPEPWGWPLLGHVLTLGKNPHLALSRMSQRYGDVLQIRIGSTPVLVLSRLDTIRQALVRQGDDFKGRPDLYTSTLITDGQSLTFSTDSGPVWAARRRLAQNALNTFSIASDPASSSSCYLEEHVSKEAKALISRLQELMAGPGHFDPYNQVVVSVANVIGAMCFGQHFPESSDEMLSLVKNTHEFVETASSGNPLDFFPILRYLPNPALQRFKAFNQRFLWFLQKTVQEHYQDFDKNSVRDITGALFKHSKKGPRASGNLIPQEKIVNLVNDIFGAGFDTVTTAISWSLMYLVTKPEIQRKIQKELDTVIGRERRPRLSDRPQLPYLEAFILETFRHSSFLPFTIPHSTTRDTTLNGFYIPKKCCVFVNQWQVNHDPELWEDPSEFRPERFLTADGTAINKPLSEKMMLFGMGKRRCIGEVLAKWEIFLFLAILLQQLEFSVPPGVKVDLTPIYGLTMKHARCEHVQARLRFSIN
# RBC AChE = details: ref USEPA (2014); cited from earlier work
# pooled HLMs (CYPs) [4] = test: CYP-mediated biotransformation of CPF in pooled HLMs (literature kinetic data); format: in vitro ADME, human; details: bioactivation of CPF
# Text: as §3
# CYP3A4 [5] = target: T3, CYP3A4 (Homo sapiens, UniProt P08684); test: Supersome CYP3A4 kinetic incubations; format: in vitro ADME; design: purchased Corning (Amsterdam, The Netherlands); host or cells: baculovirus-transfected insect cells; details: for Scaled Vmax(app): CYP3A4 scaled to whole liver by Eq. 3; for Vmax (app) / Km: Supersome CYP3A4
# Description: as §1, §2, §3, §4
# CYP3A4 [6] = target: T3, CYP3A4; details: Supersome CYP3A4; bioactivation of CPF; ref Foxenberg et al. ([2007]); cited from earlier work
# [7] = Pathway 2 (CPF to TCPy), pooled HLMs, CPF 3–100 µM, ref Sams et al. ([2004])
# T3 sequence (P08684 2-503 limits assumed): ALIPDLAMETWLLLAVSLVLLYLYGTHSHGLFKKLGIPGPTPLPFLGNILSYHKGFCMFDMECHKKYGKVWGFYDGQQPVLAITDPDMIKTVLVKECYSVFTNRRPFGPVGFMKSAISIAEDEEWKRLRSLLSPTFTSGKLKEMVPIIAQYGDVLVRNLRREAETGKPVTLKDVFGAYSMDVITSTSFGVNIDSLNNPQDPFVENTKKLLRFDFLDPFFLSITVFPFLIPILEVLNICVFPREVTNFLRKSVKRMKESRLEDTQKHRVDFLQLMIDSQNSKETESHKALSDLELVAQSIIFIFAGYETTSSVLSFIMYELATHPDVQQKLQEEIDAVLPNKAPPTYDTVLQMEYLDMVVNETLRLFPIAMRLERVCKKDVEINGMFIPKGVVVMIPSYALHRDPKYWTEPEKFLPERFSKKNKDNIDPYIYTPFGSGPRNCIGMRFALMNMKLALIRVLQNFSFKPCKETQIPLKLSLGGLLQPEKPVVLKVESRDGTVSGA
# T1 sequence (P33261 whole entry): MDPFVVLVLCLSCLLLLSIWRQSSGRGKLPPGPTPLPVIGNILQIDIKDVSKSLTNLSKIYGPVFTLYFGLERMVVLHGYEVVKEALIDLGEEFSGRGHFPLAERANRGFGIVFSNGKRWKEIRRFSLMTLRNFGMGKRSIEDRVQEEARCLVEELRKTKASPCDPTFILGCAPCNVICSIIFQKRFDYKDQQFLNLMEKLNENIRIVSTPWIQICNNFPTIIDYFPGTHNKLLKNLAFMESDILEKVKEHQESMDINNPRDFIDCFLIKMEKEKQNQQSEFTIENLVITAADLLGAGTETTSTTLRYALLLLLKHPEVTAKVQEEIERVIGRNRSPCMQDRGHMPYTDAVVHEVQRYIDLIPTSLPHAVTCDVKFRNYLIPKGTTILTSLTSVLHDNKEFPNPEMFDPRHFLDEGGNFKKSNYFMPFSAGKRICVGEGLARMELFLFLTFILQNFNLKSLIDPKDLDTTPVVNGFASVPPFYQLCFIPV
smiles,measurement,setting,value
"CCOP(=S)(OCC)Oc1nc(Cl)c(Cl)cc1Cl [CPF, Chlorpyrifos]",Vmax (high affinity),"pooled HLMs (CYPs) [1]; Pathway 1 (CPF to CPO), pooled HLMs, CPF 0.02–10 µM, ref Buratti et al. ([2003])",0.275 nmol/min/mg microsomal protein
same,Vmax (low affinity),"pooled HLMs (CYPs) [1]; Pathway 1 (CPF to CPO), pooled HLMs, CPF 3–100 µM, ref Sams et al. ([2004])",0.353 nmol/min/mg microsomal protein
same,Km,pooled HLMs (CYPs) [1]; [7],12 µM
same,Vmax,pooled HLMs (CYPs) [1]; [7],0.653 nmol/min/mg microsomal protein
same,Km,"pooled HLMs (CYPs) [1]; read-out: Km (high affinity), Pathway 1 (CPF to CPO), pooled HLMs, CPF 0.02–10 µM, ref Buratti et al. ([2003])",0.27 µM
same,Km,"pooled HLMs (CYPs) [1]; read-out: Km (low affinity), apparent Km in pooled HLMs, Pathway 1 (CPF to CPO), CPF 3–100 µM, ref Sams et al. ([2004])",29.8 µM
same,Km,CYP2C19 [2],1.23 µM
same,Scaled Vmax(app),CYP2C19 [3]; Pathway 1 (CPF to CPO),10.81 µmol/h
same,Vmax (app),CYP2C19 [3]; Pathway 1 (CPF to CPO),2.74 pmol/min/pmolCYP
same,Scaled Vmax(app),CYP2C19 [3]; Pathway 2 (CPF to TCPy),69.06 µmol/h
same,Vmax (app),CYP2C19 [3]; Pathway 2 (CPF to TCPy),17.51 pmol/min/pmolCYP
same,Km,CYP2C19 [3]; Pathway 1 (bioactivation of CPF to CPO),1.89 µM
same,Km,CYP2C19 [3]; Pathway 2 (detoxification of CPF to TCPy),1.37 µM
same,Km,CYP1A2,0.38 µM
same,"BMDL10 (EPA, derived from human PBPK-PD model)",RBC AChE,0.47 mg/kg bw
same,"CE of pooled HLM, biphasic kinetics",pooled HLMs (CYPs) [4]; high and low affinity phase included,3600 L/h
same,"CE of pooled HLM, high affinity phase excluded",pooled HLMs (CYPs) [4]; non-biphasic,41 L/h
same,Scaled Vmax(app),CYP3A4 [5]; Pathway 1 (CPF to CPO),910.77 µmol/h
same,Vmax (app),CYP3A4 [5]; Pathway 1 (CPF to CPO),17.78 pmol/min/pmolCYP
same,Scaled Vmax(app),CYP3A4 [5]; Pathway 2 (CPF to TCPy),1222.21 µmol/h
same,Vmax (app),CYP3A4 [5]; Pathway 2 (CPF to TCPy),23.86 pmol/min/pmolCYP
same,Km,"CYP3A4 [5]; human, recombinant CYP3A4 Supersomes, pH 7.4, Km(app), Pathway 1 (bioactivation of CPF to CPO)",29.8 µM
same,Km,"CYP3A4 [5]; human, recombinant CYP3A4 Supersomes, pH 7.4, Km(app), Pathway 2 (detoxification of CPF to TCPy)",18.1 µM
same,Km,"CYP3A4 [5]; read-out: Km(app), Pathway 1 (bioactivation of CPF to CPO)",29.8 µM
same,Km,CYP3A4 [6],27.3 µM
